Results published in ChEMBL document CHEMBL6153028, “Understanding the synergistic sensitization of natural products and antibiotics: An effective strategy to combat MRSA” (2025).

What was measured:
Type in all cases: functional
[1] = tested on: Staphylococcus aureus; test: Synergistic antimicrobial activity against methicillin resistant Staphylococcus aureus 43300 assessed as fractional inhibitory concentration index incubated for 24 hrs in presence of Penicillin by checkerboard assay
[2] = tested on: Staphylococcus aureus; test: Synergistic antimicrobial activity against methicillin resistant Staphylococcus aureus 43300 assessed as fractional inhibitory concentration index incubated for 24 hrs in presence of Vancomycin by checkerboard assay
[3] = tested on: Staphylococcus aureus; test: Synergistic antibacterial activity against Staphylococcus aureus assessed as fractional inhibitory concentration index incubated for 24 hrs in presence of ampicillin by checkerboard assay
[4] = tested on: Staphylococcus aureus; test: Synergistic antibacterial activity against methicillin-resistant Staphylococcus aureus 4806 assessed as fractional inhibitory concentration index incubated for 24 hrs in presence of ampicillin by checkerboard assay
[5] = tested on: Staphylococcus aureus; test: Synergistic antibacterial activity against methicillin-resistant Staphylococcus aureus assessed as fractional inhibitory concentration index incubated for 24 hrs in presence of ampicillin by checkerboard assay
[6] = tested on: Staphylococcus aureus; test: Synergistic antibacterial activity against methicillin resistant Staphylococcus aureus assessed as fractional inhibitory concentration index in presence of kanamycin incubated for 24 hrs by checkerboard assay
[7] = tested on: Staphylococcus aureus; test: Synergistic antimicrobial activity against methicillin resistant Staphylococcus aureus 43300 assessed as fractional inhibitory concentration index incubated for 24 hrs in presence of Oxacillin by checkerboard assay
[8] = tested on: Staphylococcus aureus; test: Synergistic antimicrobial activity against methicillin resistant Staphylococcus aureus assessed as fractional inhibitory concentration index incubated for 24 hrs in presence of Oxacillin by checkerboard assay
[9] = tested on: Staphylococcus aureus; test: Synergistic antimicrobial activity against methicillin-resistant Staphylococcus aureus assessed as fractional inhibitory concentration index in presence of vancomycin by checkerboard assay
[10] = tested on: Staphylococcus aureus; test: Synergistic antimicrobial activity against methicillin resistant Staphylococcus aureus assessed as fractional inhibitory concentration index incubated for 24 hrs in presence of Fosfomycin by checkerboard assay
[11] = tested on: Staphylococcus aureus; test: Synergistic antibacterial activity against methicillin resistant Staphylococcus aureus assessed as fractional inhibitory concentration index in presence of oxacillin incubated for 24 hrs by checkerboard assay
[12] = tested on: Staphylococcus aureus; test: Synergistic antimicrobial activity against methicillin-resistant Staphylococcus aureus assessed as fractional inhibitory concentration index in presence of gentamicin by checkerboard assay
[13] = tested on: Staphylococcus aureus; test: Synergistic antibacterial activity against methicillin resistant Staphylococcus aureus assessed as fractional inhibitory concentration index in presence of ampicillin
[14] = tested on: Staphylococcus aureus; test: Synergistic antibacterial activity against methicillin resistant Staphylococcus aureus assessed as fractional inhibitory concentration index in presence of norfloxacin; conditions: time 24 hrs
[15] = tested on: Staphylococcus aureus; test: Synergistic antimicrobial activity against methicillin-resistant Staphylococcus aureus assessed as fractional inhibitory concentration index in presence of gentamicin incubated for 24 hrs by checkerboard assay
[16] = tested on: Staphylococcus aureus; test: Synergistic antibacterial activity against methicillin-resistant Staphylococcus aureus assessed as fractional inhibitory concentration index incubated for 24 hrs in presence of vancomycin by checkerboard assay
[17] = tested on: Staphylococcus aureus; test: Synergistic antibacterial activity against methicillin resistant Staphylococcus aureus assessed as fractional inhibitory concentration index in presence of ciprofloxacin
[18] = tested on: Staphylococcus aureus; test: Synergistic antibacterial activity against methicillin-resistant Staphylococcus aureus assessed as fractional inhibitory concentration index in presence of cefoxitin
[19] = tested on: Staphylococcus aureus; test: Synergistic antimicrobial activity against methicillin resistant Staphylococcus aureus assessed as fractional inhibitory concentration index incubated for 24 hrs in presence of amikacin by checkerboard assay
[20] = tested on: Staphylococcus aureus; test: Synergistic antimicrobial activity against methicillin resistant Staphylococcus aureus assessed as fractional inhibitory concentration index incubated for 24 hrs in presence of Norfloxacin by checkerboard assay
[21] = tested on: Staphylococcus aureus; test: Synergistic antimicrobial activity against methicillin-resistant Staphylococcus aureus CCARM 3089 assessed as fractional inhibitory concentration index in presence of oxacillin incubated for 24 hrs by checkerboard assay
[22] = tested on: Staphylococcus aureus; test: Synergistic antibacterial activity against methicillin-resistant Staphylococcus aureus assessed as fractional inhibitory concentration index in presence of azithromycin
[23] = tested on: Staphylococcus aureus; test: Synergistic antibacterial activity against methicillin resistant Staphylococcus aureus assessed as fractional inhibitory concentration index incubated for 24 hrs in presence of levofloxacin by broth microdilution checkboard assay
[24] = tested on: Staphylococcus aureus; test: Synergistic antibacterial activity against methicillin-resistant Staphylococcus aureus assessed as fractional inhibitory concentration index incubated for 24 hrs in presence of fusidic acid by checkerboard assay
[25] = tested on: Staphylococcus aureus; test: Synergistic antibacterial activity against methicillin-resistant Staphylococcus aureus assessed as fractional inhibitory concentration index incubated for 24 hrs in presence of cefazolin by checkerboard assay

## C[C@H]1C2CCC3[C@@H]4CC=C5CC(N(C)C)CC[C@]5(C)[C@H]4CC[C@@]32CN1C=O (some centres undefined)
[1]
  fractional inhibitory concentration index (FICI): 0.116
[2]
  fractional inhibitory concentration index (FICI): 0.502

## COc1c(O)ccc2c1C(CC(C)=O)N(C)c1c-2ccc2cc3c(cc12)OCO3 (centres undefined)
[3]
  fractional inhibitory concentration index (FICI): 0.5
[4]
  fractional inhibitory concentration index (FICI): 0.375
[5]
  fractional inhibitory concentration index (FICI): 0.5

## CC(C)=CCC/C(C)=C/Cc1cc(C2CC(=O)c3c(O)cc(O)cc3O2)c(O)cc1O (centres undefined) [KUWANON E]
[6]
  fractional inhibitory concentration index (FICI): 0.5

## COc1ccc2c(c[n+](C)c3c4cc5c(cc4ccc23)OCO5)c1OC.[Cl-] [CHELERYTHRINE CHLORIDE]
[7]
  fractional inhibitory concentration index (FICI): 0.5

## CC1=CCC[C@@H]2[C@@](C)(C[C@H](O)C3=CC(=O)OC3O)[C@H](C)CC[C@@]12C (some centres undefined)
[8]
  fractional inhibitory concentration index (FICI): 0.125

## C=C(C)[C@@H]1CC[C@]2(C=O)CC[C@]3(C)[C@H](CC[C@@H]4[C@@]5(C)CC[C@H](O)C(C)(C)[C@@H]5CC[C@]43C)[C@@H]12 [BETULINALDEHYDE]
[9]
  fractional inhibitory concentration index (FICI): 0.5

## C=CCc1ccc(O)c(-c2cc(CC=C)ccc2O)c1 [MAGNOLOL]
[10]
  fractional inhibitory concentration index (FICI): <0.5

## CC(C)=CCc1c(O)ccc(-c2oc3cc(O)cc(O)c3c(=O)c2CC=C(C)C)c1O
[6]
  fractional inhibitory concentration index (FICI): 0.5
[11]
  fractional inhibitory concentration index (FICI): 0.375

## COc1cc(C)c2c(c1C)OC(=O)c1c(C)c(Cl)c(O)c(C=O)c1O2
[8]
  fractional inhibitory concentration index (FICI): 0.312
[12]
  fractional inhibitory concentration index (FICI): 0.25

## C[C@@H]1O[C@@H](O[C@H]2[C@H](O[C@H]3CC[C@]4(C)[C@H]5CC=C6[C@@H]7CC(C)(C)CC[C@]7(C(=O)O)CC[C@@]6(C)[C@]5(C)CC[C@H]4C3(C)C)OC[C@H](O)[C@@H]2O)[C@H](O)[C@H](O)[C@H]1O
[8]
  fractional inhibitory concentration index (FICI): 0.28

## CC1(C)CC[C@]2(C(=O)O)CC[C@]3(C)C(=CC[C@@H]4[C@@]5(C)CC[C@H](O)C(C)(C)[C@@H]5CC[C@]43C)[C@@H]2C1 [OLEANOLIC_ACID]
[8]
  fractional inhibitory concentration index (FICI): <0.5
[13]
  fractional inhibitory concentration index (FICI): <0.5

## C[C@H]1[C@H](C)CC[C@]2(C(=O)O)CC[C@]3(C)C(=CC[C@@H]4[C@@]5(C)CC[C@H](O)C(C)(C)[C@@H]5CC[C@]43C)[C@H]12 [URSOLIC ACID]
[8]
  fractional inhibitory concentration index (FICI): <0.5
[13]
  fractional inhibitory concentration index (FICI): <0.5

## CNC1CC[C@@]2(C)C(=CC[C@H]3C4CCC5[C@H](C)NC[C@@]54CC[C@@H]32)C1 (some centres undefined)
[1]
  FIC: 0.116
[2]
  fractional inhibitory concentration index (FICI): 0.116

## O=c1c(-c2ccc(O)cc2)coc2cc(O)cc(O)c12 [GENISTEIN]
[14]
  fractional inhibitory concentration index (FICI): 0.38

## CC(C)c1cc2c(c(O)c1O)[C@@]1(C(=O)O)CCCC(C)(C)[C@@H]1CC2 [CARNOSIC ACID]
[15]
  fractional inhibitory concentration index (FICI): 0.5

## Oc1cc(O)cc(/C=C/c2ccc(O)cc2O)c1 [OXYRESVERATROL]
[16]
  fractional inhibitory concentration index (FICI): 0.37
[17]
  fractional inhibitory concentration index (FICI): 0.37

## CC(C)=CC[C@@H](O)C1=CC(=O)c2c(O)ccc(O)c2C1=O [SHIKONIN]
[12]
  fractional inhibitory concentration index (FICI): 0.5
[18]
  fractional inhibitory concentration index (FICI): 0.57
[19]
  fractional inhibitory concentration index (FICI): 0.37

## O=C(OCC1O[C@H](OC(=O)c2cc(O)c(O)c(O)c2)[C@@H](O)[C@H](OC(=O)c2cc(O)c(O)c(O)c2)[C@H]1O)c1cc(O)c(O)c(O)c1 (some centres undefined)
[8]
  fractional inhibitory concentration index (FICI): <0.5
[20]
  fractional inhibitory concentration index (FICI): 0.31

## CC1=C(C)[C@H]2C3=CC[C@@H]4[C@@]5(C)CC[C@H](O)C(C)(C)[C@@H]5CC[C@@]4(C)[C@]3(C)CC[C@@]2(C(=O)O)CC1
[8]
  fractional inhibitory concentration index (FICI): 0.38
[3]
  fractional inhibitory concentration index (FICI): 0.5

## O=C(O[C@@H]1O[C@@H]2COC(=O)c3cc(O)c(O)c(O)c3-c3c(cc(O)c(O)c3O)C(=O)O[C@H]2[C@H](OC(=O)c2cc(O)c(O)c(O)c2)[C@H]1OC(=O)c1cc(O)c(O)c(O)c1)c1cc(O)c(O)c(O)c1 [EUGENIIN]
[21]
  fractional inhibitory concentration index (FICI): 0.395

## C[C@H]1[C@H](OC(=O)CCC(=O)O)O[C@@H]2O[C@@]3(C)CC[C@H]4[C@H](C)CC[C@@H]1[C@@]24OO3 [ARTESUNATE]
[8]
  fractional inhibitory concentration index (FICI): <0.5

## COc1ccc2cc3[n+](cc2c1OC)CCc1cc2c(cc1-3)OCO2.[Cl-] [BERBERINE CHLORIDE]
[22]
  fractional inhibitory concentration index (FICI): 0.188
[23]
  fractional inhibitory concentration index (FICI): 0.375
[24]
  fractional inhibitory concentration index (FICI): 0.19

## CC(C)=CCc1c(-c2ccc(O)cc2O)oc2c(CC=C(C)C)c(O)cc(O)c2c1=O [KUWANON C]
[6]
  fractional inhibitory concentration index (FICI): 0.375
[11]
  fractional inhibitory concentration index (FICI): 0.5

## C=CCc1ccc(O)c(-c2ccc(O)c(CC=C)c2)c1 [HONOKIOL]
[19]
  fractional inhibitory concentration index (FICI): <0.5
[10]
  fractional inhibitory concentration index (FICI): <0.5

## C=C(C)[C@@H]1CC[C@]2(C(=O)O)CC[C@]3(C)[C@H](CC[C@@H]4[C@@]5(C)CC[C@H](O)C(C)(C)[C@@H]5CC[C@]43C)[C@@H]12 [BETULINIC ACID]
[9]
  fractional inhibitory concentration index (FICI): 0.5

## C[C@H]1COC2=C1C(=O)C(=O)c1c2ccc2c1CCCC2(C)C [CRYPTOTANSHINONE]
[8]
  fractional inhibitory concentration index (FICI): 0.312
[16]
  fractional inhibitory concentration index (FICI): 0.37

## CC(C)=CCc1c(-c2ccc(O)cc2O)oc2c3c(cc(O)c2c1=O)OC(C)(C)C=C3 [MORUSIN]
[6]
  fractional inhibitory concentration index (FICI): 0.5
[11]
  fractional inhibitory concentration index (FICI): 0.375

## COc1ccc2c(c1OC)C(CC(C)=O)N(C)c1c-2ccc2cc3c(cc12)OCO3 (centres undefined)
[3]
  fractional inhibitory concentration index (FICI): 0.5

## COc1ccc2cc1Oc1ccc(cc1)C[C@H]1c3cc(c(OC)cc3CCN1C)Oc1c(OC)c(OC)cc3c1[C@H]2N(C)CC3
[25]
  fractional inhibitory concentration index (FICI): 0.188

## COc1ccc2cc1Oc1ccc(cc1)C[C@H]1c3cc(c(OC)cc3CCN1C)Oc1c(O)c(OC)cc3c1[C@H]2N(C)CC3
[25]
  fractional inhibitory concentration index (FICI): 0.25

## O=C(O)c1cc(O)c2c(c1)C(=O)c1cccc(O)c1C2=O [RHEIN]
[8]
  fractional inhibitory concentration index (FICI): 0.37

## O=C/C=C/c1ccccc1 [CINNAMALDEHYDE]
[8]
  fractional inhibitory concentration index (FICI): 0.25
[16]
  fractional inhibitory concentration index (FICI): 0.25
[12]
  fractional inhibitory concentration index (FICI): 0.37
[19]
  fractional inhibitory concentration index (FICI): 0.19
